Assay results from ChEMBL document CHEMBL1201862, “PubChem BioAssay data set” (2004).
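Compound exposure: 48 hours, 5 concentrations, 96-well plates. GI50 marks 50% less growth.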 Calls of active or inactive are those of the source. Rule as the data show it: active = GI50 up to about 1.1 µM and inactive = higher.

Key:
Experiment in all cases: inhibition of tumour cell growth, NCI panel, 48 h
RPMI-8226 = tested on: RPMI-8226
COLO 205 = tested on: COLO 205
OVCAR-5 = tested on: OVCAR-5
Hs-578T = tested on: Hs-578T
LXFL 529 = tested on: LXFL 529
ACHN = tested on: ACHN
CCRF-CEM = tested on: CCRF-CEM
HCT-116 = tested on: HCT-116
SR = tested on: SR
IGROV-1 = tested on: IGROV-1
MDA-MB-435 = tested on: MDA-MB-435
MCF7 = tested on: MCF7
HOP-18 = tested on: HOP-18
M19-MEL = tested on: M19-MEL
SK-MEL-28 = tested on: SK-MEL-28
RXF 393 = tested on: RXF 393
A549 = tested on: A549
SNB-78 = tested on: SNB-78
T47D = tested on: T47D
SN12C = tested on: SN12C
HCC 2998 = tested on: HCC 2998
DMS-114 = tested on: DMS-114
SF-539 = tested on: SF-539
OVCAR-4 = tested on: OVCAR-4
HOP-92 = tested on: HOP-92
TK-10 = tested on: TK-10
BT-549 = tested on: BT-549
UO-31 = tested on: UO-31
OVCAR-3 = tested on: OVCAR-3
NCI-H23 = tested on: NCI-H23
M14 = tested on: M14
SW-620 = tested on: SW-620
SNB-75 = tested on: SNB-75
SF-295 = tested on: SF-295
EKVX = tested on: EKVX
MOLT-4 = tested on: MOLT-4
SF-268 = tested on: SF-268
HT-29 = tested on: HT-29
OVCAR-8 = tested on: OVCAR-8
CAKI-1 = tested on: CAKI-1
PC-3 = tested on: PC-3
UACC-62 = tested on: UACC-62
HOP-62 = tested on: HOP-62
KM-20L2 = tested on: KM-20L2
Malme-3M = tested on: Malme-3M
SK-MEL-5 = tested on: SK-MEL-5
K562 = tested on: K562
DMS-273 = tested on: DMS-273
HL-60 = tested on: HL-60
NCI-H226 = tested on: NCI-H226
NCI-H460 = tested on: NCI-H460
DU-145 = tested on: DU-145
NCI-H522 = tested on: NCI-H522
A498 = tested on: A498
SNB-19 = tested on: SNB-19
U-251 = tested on: U-251
SK-MEL-2 = tested on: SK-MEL-2
MDA-MB-231 = tested on: MDA-MB-231
NCI/ADR-RES = tested on: NCI/ADR-RES
UACC-257 = tested on: UACC-257
XF498 = tested on: XF498
SK-OV-3 = tested on: SK-OV-3
RXF 631 = tested on: RXF 631
786-0 = tested on: 786-0
KM12 = tested on: KM12
DLD-1 = tested on: DLD-1
MDA-N = tested on: MDA-N
LOX IMVI = tested on: LOX IMVI
HCT-15 = tested on: HCT-15

Measured: GI50

COC1/C=C/OC2(C)Oc3c(C)c(O)c4c(c3C2=O)C(=O)C=C(NC(=O)/C(C)=C\C=C\C(C)C(OC=O)C(C)C(O)C(C)C(OC(C)=O)C1C)C4=O (centres undefined)
inactive: RPMI-8226 5.22 µM | COLO 205 4.59 µM | OVCAR-5 20.7 µM | Hs-578T 15.2 µM | LXFL 529 6.5 µM | ACHN 8.67 µM | CCRF-CEM 2.03 µM | HCT-116 4.82 µM | SR 2.77 µM | IGROV-1 18.5 µM | MDA-MB-435 16 µM | MCF7 2.93 µM | HOP-18 5.36 µM | M19-MEL 13.1 µM | SK-MEL-28 6.64 µM | RXF 393 7.67 µM | A549 21 µM | SNB-78 20.1 µM | T47D 3.65 µM | SN12C 15.2 µM | HCC 2998 19.6 µM | DMS-114 16.8 µM | SF-539 17.6 µM | OVCAR-4 7.4 µM | HOP-92 13.5 µM | TK-10 16.6 µM | BT-549 11.1 µM | UO-31 16 µM | OVCAR-3 3.76 µM | NCI-H23 14.4 µM | M14 8.65 µM | SW-620 4.04 µM | SNB-75 18.3 µM | SF-295 23.3 µM | EKVX 14.7 µM | MOLT-4 3.01 µM | SF-268 17.7 µM | HT-29 10.5 µM | OVCAR-8 15.3 µM | CAKI-1 12 µM | PC-3 10.3 µM | UACC-62 12.7 µM | HOP-62 18.7 µM | KM-20L2 18.2 µM | Malme-3M 13.4 µM | SK-MEL-5 15.8 µM | K562 3.61 µM | DMS-273 16.9 µM | HL-60 2.33 µM | NCI-H226 13.6 µM | NCI-H460 21.1 µM | DU-145 18.8 µM | NCI-H522 2.45 µM | A498 18.6 µM | SNB-19 14.5 µM | U-251 20.6 µM | SK-MEL-2 20 µM | MDA-MB-231 13.4 µM | NCI/ADR-RES 17.5 µM | UACC-257 11.4 µM | XF498 4 µM | SK-OV-3 28.7 µM | RXF 631 15.7 µM | 786-0 8.24 µM | KM12 26.8 µM | DLD-1 9.89 µM | MDA-N 15.8 µM | LOX IMVI 7.5 µM
8.61 µM: HCT-15
